Assay results reported in patent US20250186408A1, “TREATMENT OF PHARMACORESISTANT EPILEPSY” (Katholieke Universiteit Leuven, priority 2021, published 2025).
pIC50: −log10 of the molar value. Read-outs that look alike come from different tables or passages of the source.

Legend:
ROCK1 = molecular target: T1, ROCK1 (Homo sapiens, UniProt Q13464); experiment: Binding (KINOMEscan) ROCK1 Inhibitor; details: for Emax: read-out: Max response; for pIC50: read-out: RC50, result type IC50
T1 construct: purchased Eurofins DiscoverX Corporation 87-1003DR; host or cells: E. coli BL21-derived host (T7 phage) or HEK-293
Method: For most assays, kinase-tagged T7 phage strains were grown in parallel in 24-well blocks in an E. coli host derived from the BL21 strain. E. coli were grown to log-phase and infected with T7 phage from a frozen stock (multiplicity of infection=0.4) and incubated with shaking at 32° C. until lysis (90-150 min). The lysates were centrifuged (6,000×g) and filtered (0.2 μm) to remove cell debris. The remaining kinases were produced in HEK-293 cells and subsequently tagged with DNA for qPCR detection. Streptavidin-coated magnetic beads were treated with biotinylated small molecule ligands for 30 min at RT to generate affinity resins for kinase assays. The liganded beads were blocked with excess biotin and washed with blocking buffer (SeaBlock (Pierce), 1% BSA, 0.05% Tween 20, 1 mM DTT) to remove unbound ligand and to reduce non-specific phage binding. […] All reactions were performed in polypropylene 384-well plates in a final volume of 0.02 mL. […] The beads were then re-suspended in elution buffer (1×PBS, 0.05% Tween 20, 0.5 μM non-biotinylated affinity ligand) and incubated at RT with shaking for 30 min. The kinase concentration in the eluates was measured by qPCR.
The kinase concentration in the eluates was measured by qPCR. qPCR reactions were assembled by adding 2.5 μL of kinase eluate to 7.5 μL of qPCR master mix containing 0.15 μM amplicon primers and 0.15 μM amplicon probe. The qPCR protocol consisted of a 10 min hot start at 95° C., followed by 35 cycles of 95° C. for 15 sec, 60° C. for 1 min.
Binding constants (Kds) were calculated with a standard dose-response curve using the Hill equation: […]

HTR2A = HTR2A (Homo sapiens, UniProt P28223); experiment: Calcium Flux HTR2A Antagonist; details: for Emax: read-out: Max response
Method: (§1) In vitro pharmacological profiling of compounds was done against 78 functional assays for 47 common off-targets (30) by Eurofins DiscoverX Corporation (Fremont, CA, USA) using their SAFETYscan E/IC50 ELECT service (Cat Ref 87-1003DR, Safety47 Panel Dose Response). […] Compounds were tested in a range of 10 concentrations, following a 3-fold serial dilution, starting from 10 μM. The assays were performed utilizing the PathHunter enzyme fragment complementation (EFC) technology, FLIPR®-based cellular screening assays, and KINOMEscan kinase binding assays.
(§2) Prior to testing, cells (10,000 cells/well) were expanded from freezer stocks and seeded into a total volume of 50 μL into black walled, clear-bottom, Poly-D-lysine coated 384-well microplates and incubated at 37° C. […] Assays were performed in 1× dye loading buffer consisting of 1× Dye (DiscoverX, Calcium No Wash^PLUS kit, Catalog No. 90-0091), 1× Additive A and 2.5 mM Probenecid in HBSS/20 mM HEPES. Probenecid was prepared fresh. Prior to testing, media was aspirated from cells and replaced with 25 μL dye loading buffer. Cells were incubated for 45 min at 37° C. and then 20 min at RT. For agonist determination, 25 μL of 2× compound in HBSS/20 mM HEPES was added using a FLIPR Tetra (MDS). For antagonist determination, cells were pre-incubated with sample followed by agonist challenge at the EC80 concentration. 25 μL of 2× sample was added and cells were incubated for 30 min at RT in the dark to equilibrate plate temperature. After incubation, antagonist determination was initiated by addition of 25 μL of 1× compound with 3×EC80 agonist using FLIPR. For both agonist and antagonist formats, activity was measure on a FLIPR Tetra (MDS). Calcium mobilization was monitored for 2 min with a 5 sec baseline read.
(§3) FLIPR read—Area under the curve, was calculated for the entire 2 min read. Compound activity was analysed using CBIS data analysis suite (ChemInnovation, CA).

[1] = Pharmacokinetic analysis in naïve mice; details: single i.p. 300 mg/kg, male NMRI mice
Method: After the treatment period, blood samples were drawn from the tail veins, collected in Greiner MiniCollect K2EDTA tubes, and centrifuged twice for 5 min at 15,000 g to obtain plasma samples. Three volumes of acetonitrile were added to one volume of plasma to precipitate out the proteins. The samples were vortexed for 20 s and placed on ice. Immediately after, they were centrifuged at 5,000 g for 10 min and again at 10,000 g for 2 min. The resulting supernatants were transferred to Eppendorf tubes and centrifuged for 2 min at 10,000 g. Finally, the supernatants were collected for analysis by LC-MS/MS to determine the targeted compound concentration. Percentage recovery was determined as follows: known concentrations of the compound were spiked into the blank plasma and acetonitrile was added (3:1 ratio) to precipitate out the proteins. Samples were vortexed for 20 s and placed on ice. The resulting supernatants were isolated via centrifugation as described above. The targeted compounds were identified using LC-MS/MS to detect their characteristic ions. Plasma concentrations at each point were plotted as a function of time.
Brain samples were collected at the same time points as described for blood samples. Male NMRI mice were overdosed with dolethal via i.p. administration. Mice were perfused with 0.9% saline and brains were collected in Eppendorf tubes. Brains were weighed, whereafter 400 μL of acetonitrile was added to the samples. […] Homogenized samples were centrifuged at 5,000 g for 10 min and again at 10,000 g for 2 min. The resulting supernatants were transferred to Eppendorf tubes and centrifuged for 2 min at 10,000 g. Finally, the supernatants were collected for analysis by LC-MS/MS to determine the targeted compound concentration in the brain tissue.
The compound concentrations in mouse plasma and brain were determined by LC-MS/MS.

COX2 = molecular target: T2, COX2 (Homo sapiens, UniProt P35354); experiment: Enzymatic COX2 Inhibitor; assay type: biochemical; details: for Emax: read-out: Max response; for pIC50: read-out: RC50, result type IC50
T2 construct: purchased BPS Bioscience
T2 sequence (P35354 18-604): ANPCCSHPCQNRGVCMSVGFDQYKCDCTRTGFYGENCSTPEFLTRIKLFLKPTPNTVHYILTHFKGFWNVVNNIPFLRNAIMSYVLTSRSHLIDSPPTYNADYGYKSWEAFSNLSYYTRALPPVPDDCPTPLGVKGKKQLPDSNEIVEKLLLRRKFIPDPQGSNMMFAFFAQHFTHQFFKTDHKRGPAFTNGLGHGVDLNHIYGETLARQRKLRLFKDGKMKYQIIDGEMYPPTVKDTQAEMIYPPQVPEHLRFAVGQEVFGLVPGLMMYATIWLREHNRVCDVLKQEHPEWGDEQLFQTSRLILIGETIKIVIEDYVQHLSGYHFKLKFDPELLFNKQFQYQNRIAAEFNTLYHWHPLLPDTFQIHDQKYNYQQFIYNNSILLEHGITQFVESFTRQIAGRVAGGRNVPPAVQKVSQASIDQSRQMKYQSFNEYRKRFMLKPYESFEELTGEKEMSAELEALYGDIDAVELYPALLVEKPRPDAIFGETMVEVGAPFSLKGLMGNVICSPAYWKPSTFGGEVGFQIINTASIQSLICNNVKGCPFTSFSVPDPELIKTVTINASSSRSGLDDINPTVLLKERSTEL
Method: Enzyme preparations were sourced from various vendors-AChE (R&D Systems), COX1 and COX2 (BPS Bioscience), MAOA (Sigma), PDE3A and PDE4D2 (Signal Chem). AChE: enzyme and test compound were pre-incubated for 15 min at RT before substrate addition. Acetylthiocholine and DTNB were added and incubated at RT for 30 min. Signal was detected by measuring absorbance at 405 nm. COX1 and COX2: enzyme stocks were diluted in assay buffer (40 mM Tris-HCl, 1×PBS, 0.5 mM Phenol, 0.01% Tween 20 and 10 nM Hematin) and allowed to equilibrate with compounds at RT for 30 min (binding incubation). Arachidonic acid (1.7 μM) and Ampliflu Red (2.5 μM) were prepared and dispended into a reaction plate. Plates were read immediately on a fluorimeter with the emission detection at 590 nm and excitation wavelength 544 nm. MAOA: enzyme and test compound were pre-incubated for 15 min at 37° C. before substrate addition. The reaction was initiated by addition of kynuramine and incubated at 37° C. for 30 min. The reaction was terminated by addition of NaOH. The amount of 4-hydroquinoline formed was determined through spectrofluorometric readout with the emission detection at 380 nm and excitation wavelength 310 nm. PDE3A and PDE4D2: enzyme and test compound were pre-incubated for 15 min at RT before substrate addition. cAMP substrate (at a concentration equal to EC80) was added and incubated at RT for 30 min. Enzyme reaction was terminated by addition of 9 mM IBMX. Signal was detected using the HitHunter® cAMP detection kit. Microplates were transferred to a PerkinElmer Envision™ instrument and read out as described for each assay. […] For enzyme activity assays, percentage inhibition was calculated using the following equation: […]

HTR2B = HTR2B (Homo sapiens, UniProt P41595); experiment: Calcium Flux HTR2B Antagonist; details: for Emax: read-out: Max response
Method: as §1, §2, §3

ADRA1A = molecular target: T3, ADRA1A (Homo sapiens, UniProt P35348); experiment: Calcium Flux ADRA1A Antagonist; details: for Emax: read-out: Max response
T3 sequence (P35348 1-466): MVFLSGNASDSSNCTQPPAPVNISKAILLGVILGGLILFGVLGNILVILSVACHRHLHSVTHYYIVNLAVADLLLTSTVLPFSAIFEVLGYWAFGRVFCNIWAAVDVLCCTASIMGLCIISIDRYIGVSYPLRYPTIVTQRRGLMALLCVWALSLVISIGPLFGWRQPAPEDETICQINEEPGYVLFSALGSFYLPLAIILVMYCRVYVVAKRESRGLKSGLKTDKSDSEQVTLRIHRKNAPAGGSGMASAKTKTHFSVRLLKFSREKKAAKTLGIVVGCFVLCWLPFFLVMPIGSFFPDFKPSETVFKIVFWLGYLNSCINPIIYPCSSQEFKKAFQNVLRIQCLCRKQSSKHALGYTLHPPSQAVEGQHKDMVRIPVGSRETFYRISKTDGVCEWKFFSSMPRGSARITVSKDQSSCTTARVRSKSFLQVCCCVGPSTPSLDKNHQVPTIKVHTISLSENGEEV
Method: as §1, §2, §3

Chain of HTR2B (P41595 whole entry): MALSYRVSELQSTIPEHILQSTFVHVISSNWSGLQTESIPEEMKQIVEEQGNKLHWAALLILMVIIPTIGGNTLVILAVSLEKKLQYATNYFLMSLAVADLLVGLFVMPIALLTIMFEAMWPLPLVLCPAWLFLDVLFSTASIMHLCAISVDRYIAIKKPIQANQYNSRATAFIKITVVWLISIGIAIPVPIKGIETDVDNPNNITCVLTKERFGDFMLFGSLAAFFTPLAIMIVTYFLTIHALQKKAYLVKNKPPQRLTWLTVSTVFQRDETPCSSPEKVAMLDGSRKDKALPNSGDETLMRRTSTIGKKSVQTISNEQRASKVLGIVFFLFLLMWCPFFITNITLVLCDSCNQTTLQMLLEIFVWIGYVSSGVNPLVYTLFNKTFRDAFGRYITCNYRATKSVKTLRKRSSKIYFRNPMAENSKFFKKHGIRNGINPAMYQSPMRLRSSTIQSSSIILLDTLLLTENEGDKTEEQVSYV
T1 sequence (Q13464 whole entry): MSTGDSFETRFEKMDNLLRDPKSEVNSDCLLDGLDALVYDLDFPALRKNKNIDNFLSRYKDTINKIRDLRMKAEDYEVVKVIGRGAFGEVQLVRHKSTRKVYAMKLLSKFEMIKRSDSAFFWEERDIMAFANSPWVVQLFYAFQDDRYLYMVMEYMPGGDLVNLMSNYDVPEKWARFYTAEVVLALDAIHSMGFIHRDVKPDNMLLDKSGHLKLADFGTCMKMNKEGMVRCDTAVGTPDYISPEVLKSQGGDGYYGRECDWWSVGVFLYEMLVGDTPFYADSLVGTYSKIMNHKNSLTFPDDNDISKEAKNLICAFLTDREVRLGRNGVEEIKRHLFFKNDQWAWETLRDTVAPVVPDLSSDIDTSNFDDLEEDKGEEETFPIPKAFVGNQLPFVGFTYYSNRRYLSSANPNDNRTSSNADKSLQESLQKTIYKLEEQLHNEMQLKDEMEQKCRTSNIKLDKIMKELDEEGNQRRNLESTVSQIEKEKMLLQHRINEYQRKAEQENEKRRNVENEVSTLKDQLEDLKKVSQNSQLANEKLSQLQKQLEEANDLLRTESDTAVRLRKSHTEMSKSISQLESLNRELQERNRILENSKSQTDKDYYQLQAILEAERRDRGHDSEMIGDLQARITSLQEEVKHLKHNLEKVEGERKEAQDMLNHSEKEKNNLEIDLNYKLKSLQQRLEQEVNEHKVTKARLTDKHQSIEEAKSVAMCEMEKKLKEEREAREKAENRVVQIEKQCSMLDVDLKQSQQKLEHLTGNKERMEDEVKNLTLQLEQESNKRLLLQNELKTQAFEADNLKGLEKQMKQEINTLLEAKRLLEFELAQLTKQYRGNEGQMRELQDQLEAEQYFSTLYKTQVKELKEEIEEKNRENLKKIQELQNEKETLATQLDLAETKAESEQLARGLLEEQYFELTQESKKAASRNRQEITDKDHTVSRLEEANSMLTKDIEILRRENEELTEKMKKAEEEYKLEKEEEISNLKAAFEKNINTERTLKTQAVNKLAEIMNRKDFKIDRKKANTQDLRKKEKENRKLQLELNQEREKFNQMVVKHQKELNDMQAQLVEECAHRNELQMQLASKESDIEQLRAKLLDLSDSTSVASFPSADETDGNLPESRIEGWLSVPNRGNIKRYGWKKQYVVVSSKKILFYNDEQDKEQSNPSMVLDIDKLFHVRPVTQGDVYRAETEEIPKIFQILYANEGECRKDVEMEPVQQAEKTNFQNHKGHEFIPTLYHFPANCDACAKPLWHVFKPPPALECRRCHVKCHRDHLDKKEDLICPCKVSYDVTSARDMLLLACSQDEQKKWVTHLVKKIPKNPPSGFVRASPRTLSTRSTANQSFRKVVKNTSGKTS
Chain of HTR2A (P28223 whole entry): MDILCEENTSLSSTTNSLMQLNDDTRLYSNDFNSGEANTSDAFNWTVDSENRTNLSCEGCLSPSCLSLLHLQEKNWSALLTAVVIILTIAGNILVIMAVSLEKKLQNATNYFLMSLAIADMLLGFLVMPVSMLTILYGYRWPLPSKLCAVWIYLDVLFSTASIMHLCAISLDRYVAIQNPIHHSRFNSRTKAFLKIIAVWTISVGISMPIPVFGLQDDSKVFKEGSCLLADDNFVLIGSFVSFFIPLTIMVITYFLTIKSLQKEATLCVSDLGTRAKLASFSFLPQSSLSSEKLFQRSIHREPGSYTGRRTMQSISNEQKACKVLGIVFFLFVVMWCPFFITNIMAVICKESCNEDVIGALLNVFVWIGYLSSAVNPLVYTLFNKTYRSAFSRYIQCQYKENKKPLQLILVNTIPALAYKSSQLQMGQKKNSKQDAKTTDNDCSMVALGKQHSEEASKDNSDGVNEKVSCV

Row | SMILES | Emax (ROCK1; Binding ROCK1 Inhibitor) [%] | pIC50 (ROCK1; Binding ROCK1 Inhibitor) | pIC50 (HTR2A) | Emax (HTR2A) [%] | time at which brain concentration peaked [1] [h] | time at which plasma concentration peaked [1] [h] | Emax (COX2; Enzymatic COX2 Inhibitor) [%] | pIC50 (COX2; Enzymatic COX2 Inhibitor) | pIC50 (HTR2B) | Emax (HTR2B) [%] | pIC50 (ADRA1A) | Emax (ADRA1A) [%] | Emax (ROCK1) [%] | Emax (COX2) [%]
1 | Clc1cccc(C#Cc2n[nH]c3ncccc23)c1 [Compound 10.1, 3-((3-chlorophenyl)ethynyl)-1H-pyrazolo[3,4-b]pyridine] | 4.2 | < 5.00 | < 5.00 | 0 | 2.5 | 1 to 4 | 0 | < 5.00 | < 5.00 | 8.8 | < 5.00 | 0 | – | –
2 | CC(C)(C)c1ccc(C#CC(O)c2ccccc2)cc1 (racemic) [Compound 3.3, rac-3-(4-(tert-butyl)phenyl)-1-phenylprop-2-yn-1-ol] | – | < 5.00 | < 5.00 | 0 | 0.5 | 0.5 | – | < 5.00 | < 5.00 | 0 | < 5.00 | 0 | 0 | 0
